In patent US10253052B2, “HBED-bisphosphonates, radiometal conjugates and their use as theranostic agents” (Five Eleven Pharma Inc., priority 2015, dated 2019):

Experiments:
[1] = In vitro binding to hydroxyapatite; details: 20 mg hydroxyapatite in saline, 10 min at room temperature
Experimental: Hydroxyapatite (20 mg, Sigma-Aldrich, reagent grade powder) was incubated in isotonic saline (1 mL) for 24 h. Subsequently, either ^68Ga labeled 1a-h, 2, 3, BPAMD, or [^18F]NaF (1 μCi) was added to the hydroxyapatite suspension. After vortexing for 10 seconds, the suspension was incubated for 10 min at room temperature. The samples were then centrifuged at 10,000 rpm for 3 min and the supernatant was removed. The hydroxyapatite fraction was washed twice with saline (1 mL). Radioactivity in the combined supernatants and the hydroxyapatite fraction was measured using a gamma counter. The proportion of the ^68Ga complex binding to hydroxyapatite was determined as percent of ^68Ga absorbed to hydroxyapatite.

[2] = In vivo biodistribution in mice; parameters: species or system normal CD-1 male mice; details: iv
Experimental: Biodistribution experiments were performed by intravenously administering ^68Ga labeled 1a-h, 2, 3, BPAMD, and [^18F]NaF into normal, healthy male CD-1 mice (25-30 g). The injection activity was 20-30 μCi/animal. […] Organs of interest were harvested, weighed, and counts of radioactivity were measured by a gamma counter. The biodistribution of each sample was calculated as a percentage of the injected dose per gram of wet tissue weight (% ID/g). Tibia and femur bones were harvested and counted as bone samples.

SMILES: O=C([O-])CN(CCN(CC(=O)[O-])Cc1cc(CCC(=O)NC(P(=O)(O)O)P(=O)(O)O)ccc1[O-])Cc1cc(CCC(=O)NC2C(O)OC(CO)C(O)C2O)ccc1[O-].[68Ga+3] (centres unmarked) [[^68Ga]1b]
- Hydroxyapatite Binding (%) [1]: 91.7 ± 5.6%
- bone to blood ratio ([2]; 2 min): 0.9
- bone to muscle ratio ([2]; 2 min): 4.7
- Biodistribution: Blood ([2]; 2 min post injection): 9.22 ± 0.83 % dose/g
- Biodistribution: Bone ([2]; 2 min post injection): 8.34 ± 0.88 % dose/g
- Biodistribution: Brain ([2]; 2 min post injection): 0.20 ± 0.04 % dose/g
- Biodistribution: Heart ([2]; 2 min post injection): 3.01 ± 0.23 % dose/g
- Biodistribution: Kidney ([2]; 2 min post injection): 18.5 ± 2.45 % dose/g
- Biodistribution: Liver ([2]; 2 min post injection): 2.58 ± 0.22 % dose/g
- Biodistribution: Lung ([2]; 2 min post injection): 5.11 ± 0.28 % dose/g
- Biodistribution: Muscle ([2]; 2 min post injection): 1.79 ± 0.28 % dose/g
- Biodistribution: Pancreas ([2]; 2 min post injection): 1.51 ± 0.06 % dose/g
- Biodistribution: Skin ([2]; 2 min post injection): 2.55 ± 0.58 % dose/g
- Biodistribution: Spleen ([2]; 2 min post injection): 2.03 ± 0.13 % dose/g
- bone to blood ratio ([2]; 30 min): 20
- bone to muscle ratio ([2]; 30 min): 68
- Biodistribution: Blood ([2]; 30 min (0.5 hr) post injection): 0.83 ± 0.04 % dose/g
- Biodistribution: Bone ([2]; 30 min (0.5 hr) post injection): 16.6 ± 1.37 % dose/g
- Biodistribution: Brain ([2]; 30 min (0.5 hr) post injection): 0.03 ± 0.01 % dose/g
- Biodistribution: Heart ([2]; 30 min (0.5 hr) post injection): 0.62 ± 0.04 % dose/g
- Biodistribution: Kidney ([2]; 30 min (0.5 hr) post injection): 3.21 ± 1.59 % dose/g
- Biodistribution: Liver ([2]; 30 min (0.5 hr) post injection): 1.20 ± 0.10 % dose/g
- Biodistribution: Lung ([2]; 30 min (0.5 hr) post injection): 1.31 ± 0.29 % dose/g
- Biodistribution: Muscle ([2]; 30 min (0.5 hr) post injection): 0.24 ± 0.03 % dose/g
- Biodistribution: Pancreas ([2]; 30 min (0.5 hr) post injection): 0.24 ± 0.02 % dose/g
- Biodistribution: Skin ([2]; 30 min (0.5 hr) post injection): 0.60 ± 0.02 % dose/g
- Biodistribution: Spleen ([2]; 30 min (0.5 hr) post injection): 0.75 ± 0.22 % dose/g
- bone to blood ratio ([2]; 60 min): 50
- bone to muscle ratio ([2]; 60 min): 147
- Biodistribution: Blood ([2]; 60 min (1 hr) post injection): 0.39 ± 0.06 % dose/g
- Biodistribution: Bone ([2]; 60 min (1 hr) post injection): 19.4 ± 2.05 % dose/g
- Biodistribution: Brain ([2]; 60 min (1 hr) post injection): 0.02 ± 0.01 % dose/g
- Biodistribution: Heart ([2]; 60 min (1 hr) post injection): 0.37 ± 0.02 % dose/g
- Biodistribution: Kidney ([2]; 60 min (1 hr) post injection): 2.65 ± 0.44 % dose/g
- Biodistribution: Liver ([2]; 60 min (1 hr) post injection): 1.15 ± 0.13 % dose/g
- Biodistribution: Lung ([2]; 60 min (1 hr) post injection): 0.96 ± 0.05 % dose/g
- Biodistribution: Muscle ([2]; 60 min (1 hr) post injection): 0.13 ± 0.01 % dose/g
- Biodistribution: Pancreas ([2]; 60 min (1 hr) post injection): 0.11 ± 0.01 % dose/g
- Biodistribution: Skin ([2]; 60 min (1 hr) post injection): 0.26 ± 0.04 % dose/g
- Biodistribution: Spleen ([2]; 60 min (1 hr) post injection): 0.66 ± 0.15 % dose/g
- bone to blood ratio ([2]; 120 min): 82
- bone to muscle ratio ([2]; 120 min): 197
- Biodistribution: Blood ([2]; 120 min post injection): 0.21 ± 0.06 % dose/g
- Biodistribution: Bone ([2]; 120 min post injection): 17.1 ± 3.70 % dose/g
- Biodistribution: Brain ([2]; 120 min post injection): 0.02 ± 0.01 % dose/g
- Biodistribution: Heart ([2]; 120 min post injection): 0.28 ± 0.04 % dose/g
- Biodistribution: Kidney ([2]; 120 min post injection): 2.71 ± 0.17 % dose/g
- Biodistribution: Liver ([2]; 120 min post injection): 1.22 ± 0.07 % dose/g
- Biodistribution: Lung ([2]; 120 min post injection): 0.86 ± 0.03 % dose/g
- Biodistribution: Muscle ([2]; 120 min post injection): 0.09 ± 0.01 % dose/g
- Biodistribution: Pancreas ([2]; 120 min post injection): 0.08 ± 0.01 % dose/g
- Biodistribution: Skin ([2]; 120 min post injection): 0.18 ± 0.01 % dose/g
- Biodistribution: Spleen ([2]; 120 min post injection): 0.53 ± 0.04 % dose/g
